In PubChem BioAssay (NCI):
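Growth conditions: 96-well plates. Treatment: test compound, 48 hours, 5 concentrations. Analysis: linear interpolation between bracketing concentrations; unreached endpoints set to highest concentration. TGI denotes the concentration required for complete inhibition of growth.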

Columns and labels:
Assay in all cases: inhibition of tumour cell growth, NCI panel, 48 h
HCT-15 colon = system: HCT-15 colon
COLO 205 colon = system: COLO 205 colon
MALME-3M melanoma = system: MALME-3M melanoma
OVCAR-5 ovarian = system: OVCAR-5 ovarian
786-0 renal = system: 786-0 renal
UO-31 renal = system: UO-31 renal
OVCAR-3 ovarian = system: OVCAR-3 ovarian
SN12C renal = system: SN12C renal
A498 renal = system: A498 renal
HCT-116 colon = system: HCT-116 colon
A549 NSCLC = system: A549 NSCLC
DU-145 prostate = system: DU-145 prostate
PC-3 prostate = system: PC-3 prostate
CCRF-CEM leukemia = system: CCRF-CEM leukemia
HOP-62 NSCLC = system: HOP-62 NSCLC
U251 CNS = system: U251 CNS
SF-295 CNS = system: SF-295 CNS
HL-60(TB) leukemia = system: HL-60(TB) leukemia
MDA-N = system: MDA-N
SK-MEL-5 melanoma = system: SK-MEL-5 melanoma
SW-620 colon = system: SW-620 colon
EKVX NSCLC = system: EKVX NSCLC
ACHN renal = system: ACHN renal
TK-10 renal = system: TK-10 renal
MOLT-4 leukemia = system: MOLT-4 leukemia
SK-OV-3 ovarian = system: SK-OV-3 ovarian
MDA-MB-231 breast = system: MDA-MB-231 breast
RXF 393 renal = system: RXF 393 renal
NCI-H522 lung = system: NCI-H522 lung
OVCAR-8 ovarian = system: OVCAR-8 ovarian
HS 578T breast = system: HS 578T breast
HCC-2998 colon = system: HCC-2998 colon
CAKI-1 renal = system: CAKI-1 renal
BT-549 breast = system: BT-549 breast
T-47D breast = system: T-47D breast
SR leukemia = system: SR leukemia
LOX IMVI melanoma = system: LOX IMVI melanoma
UACC-257 melanoma = system: UACC-257 melanoma
NCI-H226 lung = system: NCI-H226 lung
SK-MEL-2 melanoma = system: SK-MEL-2 melanoma
SF-539 CNS = system: SF-539 CNS
SF-268 CNS = system: SF-268 CNS
SNB-19 CNS = system: SNB-19 CNS
RPMI-8226 leukemia = system: RPMI-8226 leukemia
HOP-92 NSCLC = system: HOP-92 NSCLC
IGROV1 ovarian = system: IGROV1 ovarian
MDA-MB-435 = system: MDA-MB-435
M14 melanoma = system: M14 melanoma
HT29 colon = system: HT29 colon
UACC-62 melanoma = system: UACC-62 melanoma
SK-MEL-28 melanoma = system: SK-MEL-28 melanoma
SNB-75 CNS = system: SNB-75 CNS
NCI/ADR-RES ovarian = system: NCI/ADR-RES ovarian
MCF7 breast = system: MCF7 breast
OVCAR-4 ovarian = system: OVCAR-4 ovarian
KM12 colon = system: KM12 colon
NCI-H23 lung = system: NCI-H23 lung
NCI-H460 lung = system: NCI-H460 lung
K-562 leukemia = system: K-562 leukemia

Measured: TGI

O=C(O)c1cccc(OCCOc2cccc(C(=O)O)c2[N+](=O)[O-])c1[N+](=O)[O-]
> 100 µM: HCT-15 colon | COLO 205 colon | MALME-3M melanoma | OVCAR-5 ovarian | 786-0 renal | UO-31 renal | OVCAR-3 ovarian | SN12C renal | A498 renal | HCT-116 colon | A549 NSCLC | DU-145 prostate | PC-3 prostate | CCRF-CEM leukemia | HOP-62 NSCLC | U251 CNS | SF-295 CNS | HL-60(TB) leukemia | MDA-N | SK-MEL-5 melanoma | SW-620 colon | EKVX NSCLC | ACHN renal | TK-10 renal | MOLT-4 leukemia | SK-OV-3 ovarian | MDA-MB-231 breast | RXF 393 renal | NCI-H522 lung | OVCAR-8 ovarian | HS 578T breast | HCC-2998 colon | CAKI-1 renal | BT-549 breast | T-47D breast | SR leukemia | LOX IMVI melanoma | UACC-257 melanoma | NCI-H226 lung | SK-MEL-2 melanoma | SF-539 CNS | SF-268 CNS | SNB-19 CNS | RPMI-8226 leukemia | HOP-92 NSCLC | IGROV1 ovarian | MDA-MB-435 | M14 melanoma | HT29 colon | UACC-62 melanoma | SK-MEL-28 melanoma | SNB-75 CNS | NCI/ADR-RES ovarian | MCF7 breast | OVCAR-4 ovarian | KM12 colon | NCI-H23 lung | NCI-H460 lung

Cn1c(=O)c2[nH]c(CCCc3ccc([N+](=O)[O-])cc3)nc2n(C)c1=O
> 100 µM: HCT-15 colon | COLO 205 colon | MALME-3M melanoma | OVCAR-5 ovarian | 786-0 renal | UO-31 renal | OVCAR-3 ovarian | SN12C renal | A498 renal | HCT-116 colon | A549 NSCLC | DU-145 prostate | PC-3 prostate | HOP-62 NSCLC | U251 CNS | SF-295 CNS | MDA-N | SK-MEL-5 melanoma | EKVX NSCLC | ACHN renal | TK-10 renal | MOLT-4 leukemia | SK-OV-3 ovarian | MDA-MB-231 breast | RXF 393 renal | NCI-H522 lung | OVCAR-8 ovarian | HS 578T breast | CAKI-1 renal | BT-549 breast | T-47D breast | SR leukemia | LOX IMVI melanoma | UACC-257 melanoma | NCI-H226 lung | SK-MEL-2 melanoma | SF-539 CNS | SF-268 CNS | SNB-19 CNS | RPMI-8226 leukemia | HOP-92 NSCLC | IGROV1 ovarian | MDA-MB-435 | M14 melanoma | HT29 colon | UACC-62 melanoma | SK-MEL-28 melanoma | SNB-75 CNS | K-562 leukemia | NCI/ADR-RES ovarian | MCF7 breast | OVCAR-4 ovarian | KM12 colon | NCI-H23 lung | NCI-H460 lung
